Experimental data as given in patent US20040072753A1, “Peptides for use in the treatment of alzheimer's disease” (priority 2000, published 2004).
Where a SMILES comes first, the peptide text is derived from it. Where no end group is shown, it is not given here. [ ]: non-standard residue; d: D form. pS = N[C@@H](COP(=O)(O)O)C(=O)O

Assays:
[1] = molecular target: T1, recombinant p34-cdc2/cyclin B1 (Homo sapiens, UniProt P06493); experiment: Phosphorylation of biotinylated Aβ peptides by recombinant p34-cdc2/cyclin B1 (32P incorporation); type: biochemical; conditions: for phosphorylation by cdc2 (incorporation of 32P from γ32P-ATP): 25 μM biotinylated peptide, 10 min at 30° C.
T1 construct: purchased Promega, UK
From the text: (§1) The membrane was washed four times in 2 M NaCl, followed by four times in 2 M NaCl containing 1% (v/v) H3PO4 and finally twice in deionized H2O to remove unbound material.

[2] = molecular target: T2, catalase EC 1.11.1.6 from human erythrocytes (Homo sapiens, UniProt P04040); experiment: Catalase enzyme activity, inhibition by Aβ peptides; type: biochemical; conditions: test peptides 2 μM
T2 construct: catalase EC 1.11.1.6 from human erythrocytes (Sigma, Dorset, UK) was used; purchased Sigma, Dorset, UK; host or cells: human erythrocytes
T2 sequence (P04040 2-527 limits assumed): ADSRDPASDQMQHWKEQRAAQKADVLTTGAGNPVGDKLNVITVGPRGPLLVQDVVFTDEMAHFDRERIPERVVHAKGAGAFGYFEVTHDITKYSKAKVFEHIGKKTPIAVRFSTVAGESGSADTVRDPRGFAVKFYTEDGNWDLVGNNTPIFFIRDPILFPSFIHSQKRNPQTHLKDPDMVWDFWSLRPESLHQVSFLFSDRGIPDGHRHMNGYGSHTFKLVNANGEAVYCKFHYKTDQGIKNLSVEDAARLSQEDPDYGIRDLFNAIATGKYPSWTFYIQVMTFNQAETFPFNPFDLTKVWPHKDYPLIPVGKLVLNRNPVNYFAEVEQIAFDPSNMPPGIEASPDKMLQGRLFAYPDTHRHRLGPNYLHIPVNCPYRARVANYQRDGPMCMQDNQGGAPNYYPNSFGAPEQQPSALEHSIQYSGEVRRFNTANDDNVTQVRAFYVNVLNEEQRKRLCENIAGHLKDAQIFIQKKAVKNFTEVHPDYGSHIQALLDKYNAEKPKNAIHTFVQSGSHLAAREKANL
Description: For catalase activity catalase EC 1.11.1.6 from human erythrocytes (Sigma, Dorset, UK) was used for all incubation experiments. Activity of Catalase (5kU I^−1) incubated with test peptides (2 μM) was determined after incubation in 60 mM sodium-potassium phosphate buffer at 37° C. in a total volume of 100 μl. After incubation catalase activity was determined by mixing 50 μl sample with 50 μl substrate (6.5 μmol H2O2 in phosphate buffer) for 60 secs, adding 100 μl of 32.4 mM ammonium molybdate and measurement of absorbance change at 405 nm. Catalase activity was calculated from a standard curve (0-10OkU I^−1) using purified human catalase of known activity (Milton, Biochem. J. 344: 293-296 (1999)).

[3] = system: SP2/0-Ag-14 mouse myeloma cells; experiment: Cytotoxicity of Aβ peptides, trypan blue dye exclusion; type: cell-based; conditions: test peptides 20 μM, 24 hours
Description: SP2/0-Ag-14 mouse myeloma cells were maintained in RPMI 1640 medium containing 10% fetal calf serum at 37° C. in a 5% CO2 humidified atmosphere. For cytotoxicity experiments 2×1 05 cells were plated in 24 well dishes in 1 ml PBS containing 0.1% BSA and test peptides (20 μM) for 24 hours. Cell viability was determined by trypan blue dye exclusion with at least 100 cells counted per well (Milton, Biochem. J. 344: 293-296 (1999)).

[4] = molecular target: biotinylated Aβ 25-35 (Homo sapiens, UniProt P05067); experiment: Binding of biotinylated Aβ 25-35 to CAβBP or EAβBP coated plates (ELISA); conditions: biotinylated peptide 200 pM
Description: Biotinylated Aβ1-42, Aβ12-28 and Aβ 25-35 (from SEQ ID NO. 2) were prepared using a LinKit-Biolink kit (ISL, Paignton, UK). ELISA plates were coated with CAβBP (catalase residues 400409) or EAβBD (ERAB residues 99-108) (1 μg ml^−1) in carbonate buffer and unoccupied sites blocked with 5% (w/v) dried milk. Biotinylated peptides (200 pM) were incubated alone, with control peptides or with unlabelled Aβ peptides in PBS (containing 0.1% BSA and 0.05% Tween-20) at 37° C. for 4 hours. After washing to remove unbound material, an alkaline phosphatase polymer-streptavidin conjugate (Sigma, Dorset, UK) was added and incubated at 37° C. for 2 hours. After washing to remove unbound material, p-nitrophenylphosphate substrate was added and absorbance at 405 nm determined. Affinity constants were determined by incubating catalase or CAβBP coated plates with biotinylated peptides (200 pM) plus Aβ peptides over a range of concentrations (0-100 nM) and detection of bound peptides was carried out by ELISA.

[5] = molecular target: biotinylated Aβ 1-42 (Homo sapiens, UniProt P05067); experiment: Binding of biotinylated Aβ 1-42 to CAβBP or EAβBP coated plates (ELISA, Scatchard); conditions: biotinylated peptide 200 pM
Description: After washing to remove unbound material, an alkaline phosphatase polymer-streptavidin conjugate (Sigma, Dorset, UK) was added and incubated at 37° C. for 2 hours. After washing to remove unbound material, p-nitrophenylphosphate substrate was added and absorbance at 405 nm determined.

[6] = system: Human NT-2 neurons; experiment: Cytotoxicity assay, MTT reduction in human NT-2 neurons; type: cell-based; conditions: for effect on MTT utilisation: 24 h incubation
Description: In order to assess the effects of Aβ phosphorylation on the cytotoxic properties of Aβ peptides, a series of Aβ 17-35 derivatives were synthesised. The 17-35 region of Aβ contains the serine residue (serine 26) which is proposed to be phosphorylated by p34-cdc2, and also contains the ERAB binding (17-20) and cytotoxic domains (31-35) thought to play roles in Aβ cytotoxicity. The peptides were tested in a cytotoxicity assay as follows. Human NT-2 (NTera2/D1) precursor cells were propagated in DMEM/F12 medium supplemented with retinoic acid for 5-6 weeks prior to harvesting and replating in the presence of mitotic inhibitors, to generate post-mitotic Human NT-2 neurons. For cytotoxicity experiments, 5×10^3 cells/100 μl, medium were plated in Poly-D-lysine coated 96 well plates. Test peptides (20 μM) were added directly to culture medium prior to incubation for 24 h. Cell viability was determined by measurement of MTT (3-(4,5-dimethylthiazol-2-yl)-2,5-diphenyl tetrazolium bromide) reduction (Shearman, Methods Enzymol. 309: 716-723 (1999)). After incubation with peptides MTT (10 μl: 12 mM stock) was added and cells incubated for a further 4 hours. Cell lysis buffer [100 μl/well; 20% (v/v) SDS, 50% (v/v) N,N-dimethylformamide, pH 4.7] was added and, after repeated pipetting to lyse cells, calorimetric determination of MTT formazan product formation was determined by measuring the absorbance change at 540 nm. Control levels in the absence of peptide were taken as 100%, with the absorbance in the absence of cells taken as 0%.

[7] = system: Human NT-2 neurons; experiment: Immunoassay of ir-pSAβ and ir-Aβ in extracts of NT-2 neurons exposed to Aβ 17-35 derivatives; type: cell-based; conditions: for levels of immunoreactive Aβ (ir-Aβ) in exposed cells: cell extracts; for ir-pSAβ in extracts of exposed cells: versus control cells
Description: To establish whether Aβ is phosphorylated in the Alzheimer's brain, Alzheimer disease brain sections were obtained from Novagen Inc (Madison, Wis., USA. Cat No: 70298-3; Lot No: A301036). Sections were deparaffinised and extracted in DEA buffer supplemented with 0.1 mM sodium vanadate. Extracts from NT-2 neurons were also prepared using the same buffer. Using a polyclonal anti-AB 15-30 antiserum plus Protein-A agarose, the Aβ was immunoprecipitated. The resultant extracts were further purified using a Sep-Pak C18 extraction step. Columns were pre-wetted with methanol and 0.5M acetic acid and the samples were applied in 20% acetonitrile in 0.1% TFA. […] After drying under a stream of nitrogen, samples were resuspended in appropriate buffer. For SDS-PAGE analysis, samples were resuspended in gel loading buffer and run on a 15% acrylamide gel. After immunoblotting onto nitrocellulose membranes, the blots were stained with anti-Aβ, anti-phosphoserine, anti-phosphotyrosine or anti-phosphothreonine antibodies. Bands were visualized with anti-mouse or anti-rabbit IgG-HRP conjugates and TMB membrane substrate. […] ELISA plates were coated with anti-phosphoserine antiserum for pSAβ determination and blocked with 5% dried milk. Samples or synthetic Aβ standards (Aβ 17-35 pS) were applied in PBS containing 0.1% BSA plus 0.05% Tween 20. Monoclonal antibody ALI-01 was added and incubated for 2 hrs. After washing to remove unbound material, ir-pSAβ was detected using an anti-rabbit IgG-HRP conjugate and TMB substrate. A similar assay in which the pS antibody was replaced with a polyclonal anti-Aβ antibody was used to measure Aβ levels.

[8] = molecular target: T3, cdc2/cyclin B1 (Homo sapiens, UniProt P06493+P14635); experiment: cdc2/cyclin B1 phosphorylation of biotinylated histone H1 substrate peptide; type: biochemical
T3 construct: purchased Promega, UK
From the text: as §1
Since Aβ binds to both the cdc2 and cyclin B1 components of the active enzyme it is possible that Aβ modulates the activity of the kinase.

[9] = molecular target: recombinant human cdc2 (Homo sapiens, UniProt P06493); experiment: Binding of biotinylated Aβ peptides to recombinant human cdc2 coated plates (ELISA); conditions: for binding to human cdc2: biotinylated peptide 200 pM, 37° C. 4 hours
Description: After washing to remove unbound material, an alkaline phosphatase polymer-streptavidin conjugate (Sigma, Dorset, UK) was added and incubated at 37° C. for 2 hours.

recombinant human cdc2, sequence (P06493 whole entry): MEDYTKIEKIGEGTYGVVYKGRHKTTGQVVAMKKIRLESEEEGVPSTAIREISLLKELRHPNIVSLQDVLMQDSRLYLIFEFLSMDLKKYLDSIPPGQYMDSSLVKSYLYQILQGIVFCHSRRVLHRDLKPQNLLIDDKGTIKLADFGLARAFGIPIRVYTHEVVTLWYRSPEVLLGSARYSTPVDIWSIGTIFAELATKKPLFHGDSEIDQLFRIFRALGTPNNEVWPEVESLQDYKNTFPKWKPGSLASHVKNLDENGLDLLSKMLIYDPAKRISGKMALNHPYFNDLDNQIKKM
T1 sequence (P06493 whole entry): as above
T1 sequence (P14635 whole entry partner): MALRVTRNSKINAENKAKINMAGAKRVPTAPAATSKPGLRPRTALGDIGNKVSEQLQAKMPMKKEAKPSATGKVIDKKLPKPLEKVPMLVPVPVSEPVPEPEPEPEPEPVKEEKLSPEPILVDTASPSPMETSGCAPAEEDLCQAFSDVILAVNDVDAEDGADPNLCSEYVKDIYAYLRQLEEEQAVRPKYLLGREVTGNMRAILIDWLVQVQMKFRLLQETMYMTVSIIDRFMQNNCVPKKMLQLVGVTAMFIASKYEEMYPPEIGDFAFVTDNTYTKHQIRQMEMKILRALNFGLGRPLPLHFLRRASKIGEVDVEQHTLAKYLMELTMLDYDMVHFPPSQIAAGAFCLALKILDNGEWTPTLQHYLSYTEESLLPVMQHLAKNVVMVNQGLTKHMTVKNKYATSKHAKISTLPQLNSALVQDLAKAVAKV
T3 sequence (P06493 whole entry): as the sequence (P06493 whole entry) above
T3 sequence (P14635 whole entry): as the sequence (P14635 whole entry partner) above
biotinylated Aβ 1-42, sequence (P05067 672-713 limits assumed): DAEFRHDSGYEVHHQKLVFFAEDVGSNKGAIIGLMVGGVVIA

## CDKP1: synthetic peptide corresponding to cdc2 residues 119-133 (CHSRRVLHRDLKPQN)
[1]
  inhibition of phosphorylation of Aβ: inhibited

## C[C@H](NC(=O)CN)C(=O)N1CCC[C@H]1C(=O)N[C@@H](CC(N)=O)C(=O)N[C@@H](Cc1ccc(O)cc1)C(=O)N[C@@H](Cc1ccc(O)cc1)C(=O)N1CCC[C@H]1C(=O)N[C@@H](CC(N)=O)C(=O)N[C@@H](CO)C(=O)N[C@@H](Cc1ccccc1)C(=O)O [CAβBP]
[2]
  block of the inhibition of catalase enzyme activity by Aβ 1-42: able to block
  block of the inhibition of catalase enzyme activity by Aβ fragments containing residues 31-35: able to block
[3]
  block of the cytotoxicity of Aβ 1-42: able to block
  block of the cytotoxicity of Aβ fragments containing residues 31-35: able to block
[4]
  binding of biotinylated Aβ 25-35: specifically bound
[5]
  binding of biotinylated Aβ 1-42: specifically bound

## Aβ 17-35 pS26: Aβ 17-35 peptide with a phosphorylated serine residue (LVFFAEDVG[pS]NKGAIIGLM; UniProt P05067 688-706, looked up, fragment)
[6]
  potency in MTT reduction compared with the non-phosphorylated peptide: significantly more potent
  effect on MTT utilisation: dose dependent reduction
[7]
  levels of immunoreactive Aβ (ir-Aβ) in exposed cells: increased levels
  ir-pSAβ in extracts of exposed cells: no difference to control cells

## Aβ 31-35: shortest cytotoxic form of Aβ (IIGLM)
[8]
  effect on phosphorylation of the H1 peptide by cdc2/cyclin B1: increased

## Aβ 17-35 S26A: Aβ 17-35 in which the serine residue for phosphorylation has been mutated to an alanine residue (LVFFAEDVGANKGAIIGLM; Amyloid-beta protein 42; UniProt P05067 688-706, looked up, variant S26A)
[6]
  effect on MTT utilisation: no effect
[7]
  levels of immunoreactive Aβ (ir-Aβ) in exposed cells: increased levels
  ir-pSAβ in extracts of exposed cells: no difference to control cells

## Aβ 17-28: Aβ fragment, residues 17-28 (LVFFAEDVGSNK)
[1]
  inhibition of phosphorylation of Aβ: inhibited
[9]; biotinylated Aβ 1-40 (FIG. 5)
  inhibition of the binding of Aβ to cdc2: inhibited

## Aβ 1-43: Amyloid-β 1-43 region, SEQ ID NO. 2
[1]
  phosphorylation by cdc2 (incorporation of 32P from γ32P-ATP): phosphorylated
[9]
  binding to human cdc2: binds to

## PKTPKKAKKL (listed as Homo sapiens) [H1 peptide]
[1]; substrate of cdc2/cyclin B1, read-out: Michaelis constant (KM) for the phosphorylation
  Km: 2.7 µM

## Aβ 17-35: Aβ fragment 17-35 containing serine 26, ERAB binding and cytotoxic domains (LVFFAEDVGSNKGAIIGLM)
[6]
  effect on MTT utilisation: dose dependent reduction
[7]
  levels of immunoreactive Aβ (ir-Aβ) in exposed cells: increased levels
  ir-pSAβ in extracts of exposed cells: increased amounts
[8]
  effect on phosphorylation of the H1 peptide by cdc2/cyclin B1: increased

## CC(C)C[C@H](NC(=O)[C@H](CC(C)C)NC(=O)[C@H](CCCNC(=N)N)NC(=O)[C@H](CCCCN)NC(=O)[C@H](CCCCN)NC(=O)[C@H](Cc1c[nH]cn1)NC(=O)[C@H](CC(N)=O)NC(=O)[C@H](Cc1ccccc1)NC(=O)[C@@H](NC(=O)[C@@H](N)C(C)C)C(C)C)C(=O)O [AβAS(F) 14-23] (H-VVFNHKKRLL-OH)
[3]
  block of the cytotoxicity of Aβ 1-42: able to block
  block of the cytotoxicity of Aβ fragments containing residues 17-35: able to block

## CC(C)C[C@H](N)C(=O)N[C@@H](Cc1ccccc1)C(=O)N1CCC[C@H]1C(=O)N[C@@H](CCCNC(=N)N)C(=O)N[C@@H](Cc1ccc(O)cc1)C(=O)N[C@@H](Cc1ccc(O)cc1)C(=O)N1CCC[C@H]1C(=O)N[C@@H](CCC(=O)O)C(=O)N[C@@H](Cc1ccc(O)cc1)C(=O)N[C@@H](Cc1c[nH]cn1)C(=O)O [AβAS(F) 27-36] (H-LFPRYYPEYH-OH)
[3]
  block of the cytotoxicity of Aβ 1-42: able to block
  block of the cytotoxicity of Aβ fragments containing residues 25-35: able to block

## Aβ 1-42: major form of Amyloid-β protein, residues 1-42
[1]
  phosphorylation by cdc2 (incorporation of 32P from γ32P-ATP): incorporated
[9]
  binding to human cdc2: bound
